Reference: patent US4963570A, “1-(acetylaminophenyl)-2-aminopropanone derivatives and pharmaceutical compositions thereof” (Laboratoire L. Lafon, priority 1983, dated 1990)
Where a name gives a salt, the structure may show the parent alone.

Key:
[1] = test system: male mice; assay: interaction with proadifen: motility; assay type: in vivo, mouse; conditions: i.p., administered alone
Procedure: (§1) Two series of experiments were carried out. In the first one, male mice (12 per dose, 12 control animals) were administered per I.P. route (i) with proadifen (75 mg/kg) at T-3 h, then (ii) with CRL 41 152 at T-0.5 h. At T=0 the mice were placed in actimeters, where their motility was recoded for 0.5 h. In the second one male mice (12 per dose, 12 control animals) were administered with proadifen and CRL 41 152 as indicated hereinabove, then subcutaneously with apomorphine (16 mg/kg) at T=0 in order to appreciate the potential variation of the hypothermia induced by apomorphine.
(§2) In these two series CRL 41 152, in solution in distilled water, was administered per I.P. route to male mice in a volume of 20 ml/kg.

[2] = test system: male mice; assay: interaction with proadifen: hypothermia induced by apomorphine; assay type: in vivo, mouse
Procedure: as §1, §2

[3] = test system: mice; assay: action on the spontaneous motility (actimeter); assay type: in vivo, mouse; conditions: mice, i.p.; dose not stated
Procedure: 0.5 hour after they have received CRL 41 224, the mice (6 per dose, 12 control animals) are placed in an actimeter, where their motility is recorded for 30 minutes.

[4] = test system: mice; assay: asphyxiant anoxia (gallamine triiodoethylate); assay type: in vivo, mouse; conditions: i.p.; dose not stated
Procedure: Groups of 10 mice receive CRL 41 224 half an hour before the intraperitoneal administration of 32 mg/kg of gallamine triiodoethylate (reference curarizing agent).

[5] = test system: mice; assay: overall behavior and reactivities in mice; assay type: in vivo, mouse; conditions: mice, i.p.; dose not stated
Procedure: (§3) Groups of three animals are observed before and then 0.25 hour, 0.50 hour, 1 hour, 2 hours, 3 hours and 24 hours after the administration of CRL 41 224.

[6] = test system: mice; assay: interaction with oxotremorine; assay type: in vivo, mouse; conditions: i.p.; dose not stated
Procedure: CRL 41 224 is administered to groups of 6 mice 0.5 hour before the intraperitoneal injection of 0.5 mg/kg of oxotremorine.

[7] = test system: CNS; assay: overall neuropsychopharmacological (CNS) profile; assay type: in vivo, mouse; rat; conditions: i.p., mice and rats; dose not stated
Procedure: The neuropsychopharmacological study of CRL 41 219 was carried out as indicated above for CRL 41 224.
The neuropsychopharmacological study of CRL 41 220 was carried out in accordance with the procedures given above for CRL 41 224.

[8] = test system: rats; assay: interaction with apomorphine in rats; assay type: in vivo, rat; conditions: i.p., dose not stated
Procedure: CRL 41 224 is administered to groups of 6 rats 0.5 hour before the subcutaneous injection of 0.5 mg/kg of apomorphine.

[9] = test system: mice; assay: action on the behavioral despair; assay type: in vivo, mouse; conditions: i.p., dose not stated
Text: Half an hour after they have received CRL 41 224, groups of 6 mice are placed in a beaker filled with water to a height of 6 cm. The total period of immobility between the 2nd and 6th minutes following immersion is noted.

[10] = test system: mice; assay: interaction with apomorphine in mice; assay type: in vivo, mouse; conditions: i.p.; dose not stated
Procedure: Groups of 6 mice receive CRL 41 224 0.5 hour before the subcutaneous injection of 1 or 16 mg/kg of apomorphine.

[11] = test system: rats; assay: overall behavior and reactivities in rats; assay type: in vivo, rat; conditions: i.p., dose not stated
Procedure: as §3

[12] = test system: mice; assay: motility reduced by hypoxic aggression; assay type: in vivo, mouse; conditions: i.p., dose not stated
Procedure: Half an hour after they have received CRL 41 224, the mice (10 per dose, 20 control animals) are subjected to acute hypobaric anoxia [pressure reduction of 600 mm Hg (i.e. about 8×10^4 Pa) in 90 seconds; release of vacuum in 45 seconds] and are then placed in an actimeter, where their motility is recorded for 10 minutes.

[13] = test system: mice; assay: interaction with reserpine; assay type: in vivo, mouse; conditions: i.p.; dose not stated
Procedure: Four hours after the intraperitoneal injection of 2.5 mg/kg of reserpine, groups of 6 mice receive CRL 41 224.

[14] = test system: rats; assay: interaction with amphetamine; assay type: in vivo, rat; conditions: rats, i.p.; dose not stated
Procedure: Amphetamine (2 mg/kg) is injected intraperitoneally into groups of 6 rats 30 minutes after the administration of CRL 41 224.

[15] = test system: peripheral α-adrenergic stimulation; assay: signs of peripheral adrenergic stimulation; assay type: in vivo, mouse; rat; conditions: i.p.; dose not stated
Procedure: as §3

[16] = test system: mice; assay: interaction with barbital; assay type: in vivo, mouse; conditions: i.p.; dose not stated
Procedure: Half an hour after the administration of CRL 41 224, groups of 10 mice receive an intraperitoneal injection of barbital (220 mg/kg).

[17] = test system: mice; assay: four plate test, traction and electric shock; assay type: in vivo, mouse; conditions: i.p., dose not stated
Procedure: The test is performed on groups of 10 mice 30 minutes after the administration of CRL 41 224.

[18] = acute toxicity, intraperitoneal (lethal doses); assay type: in vivo, mouse; conditions: mouse, in vivo, ip; male mice
Procedure: (§4) By intraperitoneal administration to male mice, the LD-30 (lethal dose for 30% of the animals tested) is of the order of 128 mg/kg and the LD-50 is of the order of about 200 mg/kg.

[19] = test system: male mice; assay: acute toxicity, intraperitoneal (lethal doses); assay type: in vivo, mouse; conditions: i.p.
Procedure: as §4

[20] = test system: mice; assay: motility reduced by habituation to the enclosure; assay type: in vivo, mouse; conditions: i.p., dose not stated
Procedure: After they have stayed in the actimeters for 18 hours, the mice (6 per dose, 12 control animals) receive CRL 41 224. They are immediately returned to their respective enclosures and, half an hour later, their motility is recorded for 30 minutes.

CCCC(C(=O)OCCN(CC)CC)(c1ccccc1)c1ccccc1 [Proadifen, reference compound]
spontaneous motility [1]: induces hypomotility | righting behaviour and stereotypies induced by apomorphine ([2]; i.p., apomorphine 16 mg/kg s.c.): Neither proadifen, nor CRL 41 152, nor their combination modify the righting behaviour | body temperature, used alone ([2]; proadifen 75 mg/kg i.p.): important hypothermic effect | hypothermia induced by apomorphine ([2]; proadifen 75 mg/kg i.p., apomorphine 16 mg/kg s.c.): does not modify the hypothermia induced by apomorphine

CC(=O)Nc1ccc(C(=O)C(C)N2CCCC2)cc1Cl (stereo not shown) [CRL 41 219, 1-(4-acetylamino-3-chlorophenyl)-2-pyrrolidinopropanone hydrochloride]
spontaneous motility / motor activity [3]: hyperactivity, increase in the spontaneous motor activity | time taken for convulsions and death to occur following asphyxiant anoxia [4]: reduction in the time taken for convulsions and death to occur following asphyxiant anoxia | excitation in mice [5]: excitation with hyperreactivity | stereotype movements in mice [5]: late appearance of stereotypies | hypothermia induced by oxotremorine [6]: antagonism of the hypothermia induced by apomorphine, reserpine and oxotremorine | trembling caused by oxotremorine [6]: antagonism of the trembling caused by oxotremorine | overall action on the CNS [7]: antidepressant, stimulant and arousing properties | stereotypies induced by apomorphine [8]: potentiation of the stereotypies induced by apomorphine | period of immobility or "despair" [9]: reduction in the immobility | hypothermia induced by apomorphine [10]: antagonism of the hypothermia induced by apomorphine | excitation in rats [11]: excitation (with hyperractivity) | stereotype movements in rats [11]: presence of stereotype movements | motor recovery after hypoxic aggression [12]: improvement in the motor recovery after hypoxic aggression | hypothermia induced by reserpine [13]: antagonism of the hypothermia induced by apomorphine, reserpine | ptosis induced by reserpine [13]: antagonism of the ptosis induced by reserpine | stereotypies induced by amphetamine [14]: potentiation of the stereotypies induced by apomorphine and amphetamine | mydriasis [15]: mydriasis | peripheral adrenergic stimulation, overall [15]: effects reflecting peripheral α-adrenergic stimulation | sleep induced by barbital [16]: antagonism of the sleep induced by barbital | lethal effects of electric shock [17]: aggravation of the lethal effects of electric shock | number of punished passes in the 4 plate test ([17]; mice): increase in the number of punished passes | LD50 [18]: ~200 mg/kg | LD-30 [19]: ~128 mg/kg | motor activity after habituation to the enclosure [20]: resumption in the motor activity after habituation to the enclosure
